# Laboratory results: US20250144067A1, “PERSONALIZED STARVATION THERAPY FOR CANCER” (Faeth Therapeutics, Inc., priority 2021, published 2025)
# Counter-ions that a name gives are not always drawn.
# Test system: NCI-H292 lung cancer cells
# Assay: FDA drug screening, complete media vs cholesterol-free media with simvastatin (TABLE 2)
# Type: cell-based, human
# Settings: NCI-H292 cells, FDA library drug in cholesterol-free media with simvastatin 0.04 μM
row,Compound,Cholesterol-free media + simvastatin (0.04 μM)
1,O=C(Cn1ccnc1[N+](=O)[O-])NCc1ccccc1 [Benznidazol],2.104
2,CCOC(=O)c1ccc(N)cc1 [Benzocaine],1.309
3,O=C(O)CCCN1CCC(O[C@@H](c2ccc(Cl)cc2)c2ccccn2)CC1 [Bepotastine (besilate)],1.245

# Same assay, conditions: NCI-H292 cells, FDA library drug in complete media
row,Compound,Complete Media
1,O=C(Cn1ccnc1[N+](=O)[O-])NCc1ccccc1 [Benznidazol],1.636
2,CCOC(=O)c1ccc(N)cc1 [Benzocaine],1.007
3,O=C(O)CCCN1CCC(O[C@@H](c2ccc(Cl)cc2)c2ccccn2)CC1 [Bepotastine (besilate)],0.8639

# Same assay, conditions: NCI-H292 cells, cholesterol-free media with simvastatin 0.04 μM; FDA drug library screen (TABLE 2)
row,Compound,Cholesterol-free media + simvastatin (0.04 μM)
1,CC[C@@]1(O)C(=O)OCc2c1cc1n(c2=O)Cc2c-1nc1ccccc1c2CCNC(C)C [Belotecan (hydrochloride)],−0.0005237
2,NC(=NCc1ccccc1)NC(=O)c1nc(Cl)c(N)nc1N [Benzamil (hydrochloride)],0.8193
3,O=C(OCc1ccccc1)c1ccccc1 [Benzyl benzoate],0.8319

# Same assay, conditions: NCI-H292 cells, cholesterol-free media with simvastatin 0.04 μM; cell growth value in FDA drug screen
row,Compound,Cholesterol-free media + simvastatin (0.04 μM)
1,COC(=O)C1=C(C)NC(C)=C(C(=O)OC2CCCN(Cc3ccccc3)C2)C1c1cccc([N+](=O)[O-])c1 (stereo not shown) [Benidipine (hydrochloride)],1.054
2,CCc1oc2ccccc2c1C(=O)c1cc(Br)c(O)c(Br)c1 [Benzbromarone],0.9582
3,NS(=O)(=O)c1cc2c(cc1Cl)N=C(CSCc1ccccc1)NS2(=O)=O [Benzthiazide],1.107

# Same assay, conditions: NCI-H292 cells, complete media; FDA drug library screen (TABLE 2)
row,Compound,Complete Media
1,CC[C@@]1(O)C(=O)OCc2c1cc1n(c2=O)Cc2c-1nc1ccccc1c2CCNC(C)C [Belotecan (hydrochloride)],0.007701
2,NC(=NCc1ccccc1)NC(=O)c1nc(Cl)c(N)nc1N [Benzamil (hydrochloride)],0.8118
3,O=C(OCc1ccccc1)c1ccccc1 [Benzyl benzoate],0.7979

# Same assay, conditions: NCI-H292 cells, complete media; cell growth value in FDA drug screen
row,Compound,Complete Media
1,CCc1oc2ccccc2c1C(=O)c1cc(Br)c(O)c(Br)c1 [Benzbromarone],0.9819

# Same assay, conditions: NCI-H292 cells, drug in cholesterol-free media with simvastatin 0.04 μM
row,Compound,Cholesterol-free media + simvastatin (0.04 μM)
1,NC[C@H]1O[C@H](O[C@H]2[C@H](O)[C@@H](O[C@H]3O[C@H](CO)[C@@H](O)[C@H](N)[C@H]3O)[C@H](N)C[C@@H]2N)[C@H](N)[C@@H](O)[C@@H]1O [Bekanamycin],1.456
2,CCN(CC)CCOC(=O)C(O)(c1ccccc1)c1ccccc1 [Benactyzine hydrochloride],1.159
3,Cn1c(CCCC(=O)O)nc2cc(N(CCCl)CCCl)ccc21 [Bendamustine (hydrochloride)],1.142
4,CC(Cc1cccc(C(F)(F)F)c1)NCCOC(=O)c1ccccc1 (stereo not shown) [Benfluorex (hydrochloride)],1.041
5,O=C(O)c1ccc(NC(=O)[C@H](Cc2ccc(O)cc2)NC(=O)c2ccccc2)cc1 [Bentiromide],0.9161
6,O=C(O)CCCN1CCC(O[C@@H](c2ccc(Cl)cc2)c2ccccn2)CC1 [Bepotastine],0.9667

# Same assay, conditions: NCI-H292 cells, drug in complete media
row,Compound,Complete Media
1,NC[C@H]1O[C@H](O[C@H]2[C@H](O)[C@@H](O[C@H]3O[C@H](CO)[C@@H](O)[C@H](N)[C@H]3O)[C@H](N)C[C@@H]2N)[C@H](N)[C@@H](O)[C@@H]1O [Bekanamycin],1.293
2,CCN(CC)CCOC(=O)C(O)(c1ccccc1)c1ccccc1 [Benactyzine hydrochloride],0.961
3,Cn1c(CCCC(=O)O)nc2cc(N(CCCl)CCCl)ccc21 [Bendamustine (hydrochloride)],0.9554
4,CC(Cc1cccc(C(F)(F)F)c1)NCCOC(=O)c1ccccc1 (stereo not shown) [Benfluorex (hydrochloride)],0.8151
5,O=C(O)c1ccc(NC(=O)[C@H](Cc2ccc(O)cc2)NC(=O)c2ccccc2)cc1 [Bentiromide],0.7117
6,O=C(O)CCCN1CCC(O[C@@H](c2ccc(Cl)cc2)c2ccccn2)CC1 [Bepotastine],0.7639

# Same assay, conditions: complete media minus cholesterol-free media + simvastatin (0.04 μM); >0 enhanced anti-cancer activity, about 0 neutral, <0 antagonist
row,Compound,Difference
1,CC[C@@]1(O)C(=O)OCc2c1cc1n(c2=O)Cc2c-1nc1ccccc1c2CCNC(C)C [Belotecan (hydrochloride)],0.01
2,NC(=NCc1ccccc1)NC(=O)c1nc(Cl)c(N)nc1N [Benzamil (hydrochloride)],−0.01
3,O=C(OCc1ccccc1)c1ccccc1 [Benzyl benzoate],−0.03

# Same assay, conditions: complete media minus cholesterol-free media + simvastatin; >0 enhanced anti-cancer activity, about 0 neutral, <0 antagonist
row,Compound,Difference
1,COC(=O)C1=C(C)NC(C)=C(C(=O)OC2CCCN(Cc3ccccc3)C2)C1c1cccc([N+](=O)[O-])c1 (stereo not shown) [Benidipine (hydrochloride)],0.11
2,CCc1oc2ccccc2c1C(=O)c1cc(Br)c(O)c(Br)c1 [Benzbromarone],0.02
3,NS(=O)(=O)c1cc2c(cc1Cl)N=C(CSCc1ccccc1)NS2(=O)=O [Benzthiazide],0.04

# Same assay, conditions: complete media vs cholesterol-free media + simvastatin (0.04 μM); >0 enhanced anti-cancer activity, about 0 neutral, <0 antagonist
row,Compound,Difference
1,NC[C@H]1O[C@H](O[C@H]2[C@H](O)[C@@H](O[C@H]3O[C@H](CO)[C@@H](O)[C@H](N)[C@H]3O)[C@H](N)C[C@@H]2N)[C@H](N)[C@@H](O)[C@@H]1O [Bekanamycin],−0.16
2,CC(Cc1cccc(C(F)(F)F)c1)NCCOC(=O)c1ccccc1 (stereo not shown) [Benfluorex (hydrochloride)],−0.23
3,O=C(O)c1ccc(NC(=O)[C@H](Cc2ccc(O)cc2)NC(=O)c2ccccc2)cc1 [Bentiromide],−0.20
4,O=C(Cn1ccnc1[N+](=O)[O-])NCc1ccccc1 [Benznidazol],−0.47
5,CCOC(=O)c1ccc(N)cc1 [Benzocaine],−0.30
6,O=C(O)CCCN1CCC(O[C@@H](c2ccc(Cl)cc2)c2ccccn2)CC1 [Bepotastine (besilate)],−0.38
7,O=C(O)CCCN1CCC(O[C@@H](c2ccc(Cl)cc2)c2ccccn2)CC1 [Bepotastine],−0.20

# Same assay, conditions: complete media vs cholesterol-free media + simvastatin (0.04 μM); […]
row,Compound,Difference
1,CCN(CC)CCOC(=O)C(O)(c1ccccc1)c1ccccc1 [Benactyzine hydrochloride],−0.20
2,Cn1c(CCCC(=O)O)nc2cc(N(CCCl)CCCl)ccc21 [Bendamustine (hydrochloride)],−0.19

# Test system: NCI-H292 lung cancer cells
# Assay: FDA drug screening, complete media vs cholesterol-free media without statin (TABLE 1)
# Type: cell-based, human
# Settings: Complete minus Cholesterol-free; >0 enhanced anti-cancer activity, about 0 neutral, <0 antagonist
row,Compound,Difference
1,CC[C@@]1(O)C(=O)OCc2c1cc1n(c2=O)Cc2c-1nc1ccccc1c2CCNC(C)C [Belotecan (hydrochloride)],0.00
2,O=C(O)c1ccc(NC(=O)[C@H](Cc2ccc(O)cc2)NC(=O)c2ccccc2)cc1 [Bentiromide],−0.23
3,NC(=NCc1ccccc1)NC(=O)c1nc(Cl)c(N)nc1N [Benzamil (hydrochloride)],−0.30
4,CCOC(=O)c1ccc(N)cc1 [Benzocaine],−0.30

# Same assay, conditions: Complete minus Cholesterol-free; […]
row,Compound,Difference
1,CCN(CC)CCOC(=O)C(O)(c1ccccc1)c1ccccc1 [Benactyzine hydrochloride],−0.51
2,Cn1c(CCCC(=O)O)nc2cc(N(CCCl)CCCl)ccc21 [Bendamustine (hydrochloride)],−0.21

# Same assay, conditions: Complete minus Cholesterol-free; greater than 0 enhanced anti-cancer activity, about 0 neutral, below 0 antagonist
row,Compound,Difference
1,NS(=O)(=O)c1cc2c(cc1Cl)N=C(CSCc1ccccc1)NS2(=O)=O [Benzthiazide],−0.08

# Same assay, conditions: Complete minus Cholesterol-free; greater than 0 enhanced anti-cancer activity, about 0 neutral, below 0 antagonists
row,Compound,Difference
1,CCc1oc2ccccc2c1C(=O)c1cc(Br)c(O)c(Br)c1 [Benzbromarone],−0.92

# Same assay, conditions: NCI-H292 cells in cholesterol-free media without statin
row,Compound,Cholesterol-free
1,CCN(CC)CCOC(=O)C(O)(c1ccccc1)c1ccccc1 [Benactyzine hydrochloride],1.39
2,CCc1oc2ccccc2c1C(=O)c1cc(Br)c(O)c(Br)c1 [Benzbromarone],1.902

# Same assay, conditions: NCI-H292 cells in complete media
row,Compound,Complete
1,CCN(CC)CCOC(=O)C(O)(c1ccccc1)c1ccccc1 [Benactyzine hydrochloride],0.878
2,CCc1oc2ccccc2c1C(=O)c1cc(Br)c(O)c(Br)c1 [Benzbromarone],0.9837

# Same assay, conditions: NCI-H292 cells, FDA drug library screen, cholesterol-free media without statin
row,Compound,Cholesterol-free
1,NS(=O)(=O)c1cc2c(cc1Cl)N=C(CSCc1ccccc1)NS2(=O)=O [Benzthiazide],0.9561

# Same assay, conditions: NCI-H292 cells, FDA drug library screen, complete media
row,Compound,Complete
1,NS(=O)(=O)c1cc2c(cc1Cl)N=C(CSCc1ccccc1)NS2(=O)=O [Benzthiazide],0.8751

# Same assay, conditions: NCI-H292 cells, cholesterol-free media without statin
row,Compound,Cholesterol-free
1,Cn1c(CCCC(=O)O)nc2cc(N(CCCl)CCCl)ccc21 [Bendamustine (hydrochloride)],1.195
2,CC(Cc1cccc(C(F)(F)F)c1)NCCOC(=O)c1ccccc1 (stereo not shown) [Benfluorex (hydrochloride)],1.106
3,COC(=O)C1=C(C)NC(C)=C(C(=O)OC2CCCN(Cc3ccccc3)C2)C1c1cccc([N+](=O)[O-])c1 (stereo not shown) [Benidipine (hydrochloride)],0.9476
4,O=C(O)c1ccc(NC(=O)[C@H](Cc2ccc(O)cc2)NC(=O)c2ccccc2)cc1 [Bentiromide],1.105
5,NC(=NCc1ccccc1)NC(=O)c1nc(Cl)c(N)nc1N [Benzamil (hydrochloride)],0.9643
6,CCOC(=O)c1ccc(N)cc1 [Benzocaine],0.9439
7,O=C(O)CCCN1CCC(O[C@@H](c2ccc(Cl)cc2)c2ccccn2)CC1 [Bepotastine (besilate)],1.237

# Same assay, conditions: NCI-H292 cells, cholesterol-free media without statin, FDA drug library screen
row,Compound,Cholesterol-free
1,NC[C@H]1O[C@H](O[C@H]2[C@H](O)[C@@H](O[C@H]3O[C@H](CO)[C@@H](O)[C@H](N)[C@H]3O)[C@H](N)C[C@@H]2N)[C@H](N)[C@@H](O)[C@@H]1O [Bekanamycin],0.873
2,CC[C@@]1(O)C(=O)OCc2c1cc1n(c2=O)Cc2c-1nc1ccccc1c2CCNC(C)C [Belotecan (hydrochloride)],0.00566
3,O=C(Cn1ccnc1[N+](=O)[O-])NCc1ccccc1 [Benznidazol],1.047
4,O=C(OCc1ccccc1)c1ccccc1 [Benzyl benzoate],0.6319
5,O=C(O)CCCN1CCC(O[C@@H](c2ccc(Cl)cc2)c2ccccn2)CC1 [Bepotastine],0.9809

# Same assay, conditions: NCI-H292 cells, complete media
row,Compound,Complete
1,Cn1c(CCCC(=O)O)nc2cc(N(CCCl)CCCl)ccc21 [Bendamustine (hydrochloride)],0.9866
2,CC(Cc1cccc(C(F)(F)F)c1)NCCOC(=O)c1ccccc1 (stereo not shown) [Benfluorex (hydrochloride)],0.6694
3,COC(=O)C1=C(C)NC(C)=C(C(=O)OC2CCCN(Cc3ccccc3)C2)C1c1cccc([N+](=O)[O-])c1 (stereo not shown) [Benidipine (hydrochloride)],0.5889
4,O=C(O)c1ccc(NC(=O)[C@H](Cc2ccc(O)cc2)NC(=O)c2ccccc2)cc1 [Bentiromide],0.8729
5,NC(=NCc1ccccc1)NC(=O)c1nc(Cl)c(N)nc1N [Benzamil (hydrochloride)],0.6686
6,CCOC(=O)c1ccc(N)cc1 [Benzocaine],0.6479
7,O=C(O)CCCN1CCC(O[C@@H](c2ccc(Cl)cc2)c2ccccn2)CC1 [Bepotastine (besilate)],0.8985

# Same assay, conditions: NCI-H292 cells, complete media, FDA drug library screen
row,Compound,Complete
1,NC[C@H]1O[C@H](O[C@H]2[C@H](O)[C@@H](O[C@H]3O[C@H](CO)[C@@H](O)[C@H](N)[C@H]3O)[C@H](N)C[C@@H]2N)[C@H](N)[C@@H](O)[C@@H]1O [Bekanamycin],1.446
2,CC[C@@]1(O)C(=O)OCc2c1cc1n(c2=O)Cc2c-1nc1ccccc1c2CCNC(C)C [Belotecan (hydrochloride)],0.01027
3,O=C(Cn1ccnc1[N+](=O)[O-])NCc1ccccc1 [Benznidazol],1.215
4,O=C(OCc1ccccc1)c1ccccc1 [Benzyl benzoate],1.132
5,O=C(O)CCCN1CCC(O[C@@H](c2ccc(Cl)cc2)c2ccccn2)CC1 [Bepotastine],1.256

# Same assay, conditions: complete vs cholesterol-free media; >0 enhanced anti-cancer activity, about 0 neutral, <0 antagonist
row,Compound,Difference
1,NC[C@H]1O[C@H](O[C@H]2[C@H](O)[C@@H](O[C@H]3O[C@H](CO)[C@@H](O)[C@H](N)[C@H]3O)[C@H](N)C[C@@H]2N)[C@H](N)[C@@H](O)[C@@H]1O [Bekanamycin],0.57
2,O=C(Cn1ccnc1[N+](=O)[O-])NCc1ccccc1 [Benznidazol],0.17
3,O=C(OCc1ccccc1)c1ccccc1 [Benzyl benzoate],0.50
4,O=C(O)CCCN1CCC(O[C@@H](c2ccc(Cl)cc2)c2ccccn2)CC1 [Bepotastine],0.28

# Same assay, conditions: complete vs cholesterol-free media; greater than 0 enhanced anti-cancer activity, about 0 neutral, below 0 antagonists
row,Compound,Difference
1,CC(Cc1cccc(C(F)(F)F)c1)NCCOC(=O)c1ccccc1 (stereo not shown) [Benfluorex (hydrochloride)],−0.44
2,COC(=O)C1=C(C)NC(C)=C(C(=O)OC2CCCN(Cc3ccccc3)C2)C1c1cccc([N+](=O)[O-])c1 (stereo not shown) [Benidipine (hydrochloride)],−0.36
3,O=C(O)CCCN1CCC(O[C@@H](c2ccc(Cl)cc2)c2ccccn2)CC1 [Bepotastine (besilate)],−0.34
